Data from paper PMC6416464 (Drug Metabolism Letters, 2018).
Where two headings read alike, the source gives them in different places.

What was measured:
[1] = Metabolic stability, incubation with human liver cytosol; type: in vitro ADME; conditions: 1 µM test compound, 1 mg/mL protein
[2] = biological target: rCYP3A4 (Homo sapiens, UniProt P08684)
[3] = biological target: T1, CYP3A4 (Homo sapiens, UniProt P08684); test: in vitro; conditions: microsomes, pH 7.4, % Inhibition of Control Activity CYP3A4 (substrate, testosterone)
[4] = biological target: T1, CYP3A4; test: in vitro; conditions: microsomes, pH 7.4
[5] = Metabolic stability, incubation with human liver microsomes; conditions: 1 µM test compound, 0.5 mg/mL protein
[6] = biological target: T2, CYP1A2 (Homo sapiens, UniProt P05177); test: CYP inhibition in human liver microsomes, CYP1A2; conditions: for % Inhibition of Control Activity CYP1A2: inhibitor 10 µM, HLM, NI: No Inhibitin
T2 sequence (P05177 1-516): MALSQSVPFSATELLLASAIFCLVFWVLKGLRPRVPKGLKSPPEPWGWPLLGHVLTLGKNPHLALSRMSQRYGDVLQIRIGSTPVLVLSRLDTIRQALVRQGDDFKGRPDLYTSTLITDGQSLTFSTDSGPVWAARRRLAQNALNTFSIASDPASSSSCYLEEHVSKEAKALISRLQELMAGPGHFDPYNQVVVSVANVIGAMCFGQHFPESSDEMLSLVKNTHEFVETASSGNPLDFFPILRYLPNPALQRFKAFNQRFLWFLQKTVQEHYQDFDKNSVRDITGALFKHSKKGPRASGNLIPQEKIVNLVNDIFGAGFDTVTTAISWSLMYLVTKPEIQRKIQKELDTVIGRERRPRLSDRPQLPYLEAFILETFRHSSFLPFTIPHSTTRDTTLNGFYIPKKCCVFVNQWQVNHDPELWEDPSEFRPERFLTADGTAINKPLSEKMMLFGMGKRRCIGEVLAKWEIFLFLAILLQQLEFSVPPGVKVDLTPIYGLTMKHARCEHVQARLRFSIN

[7] = biological target: T3, CYP2C8 (Homo sapiens, UniProt P10632); test: CYP inhibition in human liver microsomes, CYP2C8; conditions: for % Inhibition of Control Activity CYP2C8: NI: No Inhibitin
T3 sequence (P10632 1-490): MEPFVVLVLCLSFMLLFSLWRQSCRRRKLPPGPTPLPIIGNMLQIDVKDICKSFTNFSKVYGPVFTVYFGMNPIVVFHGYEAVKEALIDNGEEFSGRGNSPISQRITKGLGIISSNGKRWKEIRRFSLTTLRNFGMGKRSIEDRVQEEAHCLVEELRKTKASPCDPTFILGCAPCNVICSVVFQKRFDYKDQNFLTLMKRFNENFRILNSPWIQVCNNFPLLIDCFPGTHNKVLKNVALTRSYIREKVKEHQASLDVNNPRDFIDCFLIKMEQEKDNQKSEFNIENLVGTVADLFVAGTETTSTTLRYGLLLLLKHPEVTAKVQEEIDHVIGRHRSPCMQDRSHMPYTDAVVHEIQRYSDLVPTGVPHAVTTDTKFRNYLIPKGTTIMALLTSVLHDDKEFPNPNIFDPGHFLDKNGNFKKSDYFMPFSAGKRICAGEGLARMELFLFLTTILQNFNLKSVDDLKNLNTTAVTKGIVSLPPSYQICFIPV

[8] = biological target: CYP2C9 (Homo sapiens, UniProt P11712); test: CYP inhibition in human liver microsomes, CYP2C9; conditions: for % Inhibition of Control Activity CYP2C9: NI: No Inhibitin
[9] = biological target: CYP2C19 (Homo sapiens, UniProt P33261); test: CYP inhibition in human liver microsomes, CYP2C19; conditions: inhibitor 10 µM, HLM, NI: No Inhibitin
[10] = biological target: T4, rCYP1A2 (Homo sapiens, UniProt P05177); test: Metabolic stability / reaction phenotyping with recombinant human CYP1A2; conditions: for % Metabolized at 30 min Incubation with Human Liver Fractions/Enzymes rCYP1A2: 1 µM test compound, 100 pmol/mL
T4 sequence (P05177 1-516): T2 sequence (P05177 1-516)

[11] = biological target: T5, rCYP2C8 (Homo sapiens, UniProt P10632); test: Metabolic stability / reaction phenotyping with recombinant human CYP2C8; conditions: for % Metabolized at 30 min Incubation with Human Liver Fractions/Enzymes rCYP2C8: 1 µM test compound, 100 pmol/mL
T5 sequence (P10632 1-490): T3 sequence (P10632 1-490)

[12] = biological target: rCYP2C9 (Homo sapiens, UniProt P11712); test: Metabolic stability / reaction phenotyping with recombinant human CYP2C9; conditions: for % Metabolized at 30 min Incubation with Human Liver Fractions/Enzymes rCYP2C9: 1 µM test compound, 100 pmol/mL
[13] = biological target: rCYP2D6 (Homo sapiens, UniProt P10635); test: Metabolic stability / reaction phenotyping with recombinant human CYP2D6; conditions: for % Metabolized at 30 min Incubation with Human Liver Fractions/Enzymes rCYP2D6: 1 µM test compound, 100 pmol/mL
[14] = biological target: rCYP2C19 (Homo sapiens, UniProt P33261); test: Metabolic stability / reaction phenotyping with recombinant human CYP2C19; conditions: for % Metabolized at 30 min Incubation with Human Liver Fractions/Enzymes rCYP2C19: 1 µM test compound, 100 pmol/mL
[15] = biological target: T1, CYP3A4; conditions: microsomes
[16] = cited from earlier work
[17] = human, recombinant enzyme, pH 7.4
[18] = human, human liver microsomes, pH 7.4, probe paclitaxel
[19] = human, recombinant human CYP1A2, 1 µM, pH 7.4
[20] = human, recombinant human CYP2C8, 1 µM, pH 7.4
[21] = human, recombinant human CYP2C9, 1 µM, pH 7.4
[22] = human, recombinant human CYP2D6, 1 µM, pH 7.4

Chain of rCYP2D6 (P10635 whole entry): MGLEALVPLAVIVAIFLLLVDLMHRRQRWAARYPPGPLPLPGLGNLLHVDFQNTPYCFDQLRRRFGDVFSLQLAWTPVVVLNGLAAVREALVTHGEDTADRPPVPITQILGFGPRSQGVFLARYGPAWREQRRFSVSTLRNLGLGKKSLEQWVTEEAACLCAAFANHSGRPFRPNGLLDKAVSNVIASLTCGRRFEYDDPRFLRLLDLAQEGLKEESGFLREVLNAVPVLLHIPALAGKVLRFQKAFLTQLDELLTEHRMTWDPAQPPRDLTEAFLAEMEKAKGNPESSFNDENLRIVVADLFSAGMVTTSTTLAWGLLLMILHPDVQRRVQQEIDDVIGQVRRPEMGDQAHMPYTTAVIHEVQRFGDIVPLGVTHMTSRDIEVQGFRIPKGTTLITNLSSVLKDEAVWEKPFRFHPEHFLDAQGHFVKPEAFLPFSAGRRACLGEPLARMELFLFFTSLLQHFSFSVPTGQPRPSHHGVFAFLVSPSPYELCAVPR
T1 sequence (P08684 2-503): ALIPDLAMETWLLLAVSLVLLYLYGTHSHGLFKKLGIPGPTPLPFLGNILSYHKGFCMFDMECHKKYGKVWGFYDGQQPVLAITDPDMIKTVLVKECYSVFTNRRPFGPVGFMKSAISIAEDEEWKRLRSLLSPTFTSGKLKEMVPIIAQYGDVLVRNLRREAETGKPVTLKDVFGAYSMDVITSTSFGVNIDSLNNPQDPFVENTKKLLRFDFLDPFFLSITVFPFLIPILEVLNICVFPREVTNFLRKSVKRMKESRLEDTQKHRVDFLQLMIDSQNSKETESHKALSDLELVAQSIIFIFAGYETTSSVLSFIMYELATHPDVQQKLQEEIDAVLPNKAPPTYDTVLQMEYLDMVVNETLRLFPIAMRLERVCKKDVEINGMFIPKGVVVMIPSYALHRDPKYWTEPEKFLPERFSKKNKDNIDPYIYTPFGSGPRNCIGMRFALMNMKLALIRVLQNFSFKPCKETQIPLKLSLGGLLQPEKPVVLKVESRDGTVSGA
Chain of rCYP3A4 (P08684 whole entry): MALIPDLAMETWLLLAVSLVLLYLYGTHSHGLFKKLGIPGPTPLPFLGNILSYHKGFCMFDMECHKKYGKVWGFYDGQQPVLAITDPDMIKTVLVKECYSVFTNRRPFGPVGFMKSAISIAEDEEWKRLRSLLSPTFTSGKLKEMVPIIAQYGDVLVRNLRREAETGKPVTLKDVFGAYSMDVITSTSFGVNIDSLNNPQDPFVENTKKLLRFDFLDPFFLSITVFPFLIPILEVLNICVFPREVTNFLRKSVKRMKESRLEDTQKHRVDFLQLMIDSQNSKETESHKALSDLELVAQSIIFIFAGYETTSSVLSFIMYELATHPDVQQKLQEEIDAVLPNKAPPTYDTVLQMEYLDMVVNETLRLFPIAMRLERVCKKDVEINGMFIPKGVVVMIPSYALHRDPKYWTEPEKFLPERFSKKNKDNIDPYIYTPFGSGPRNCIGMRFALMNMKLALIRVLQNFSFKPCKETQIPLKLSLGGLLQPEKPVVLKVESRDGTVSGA
Chain of rCYP2C19 (P33261 whole entry): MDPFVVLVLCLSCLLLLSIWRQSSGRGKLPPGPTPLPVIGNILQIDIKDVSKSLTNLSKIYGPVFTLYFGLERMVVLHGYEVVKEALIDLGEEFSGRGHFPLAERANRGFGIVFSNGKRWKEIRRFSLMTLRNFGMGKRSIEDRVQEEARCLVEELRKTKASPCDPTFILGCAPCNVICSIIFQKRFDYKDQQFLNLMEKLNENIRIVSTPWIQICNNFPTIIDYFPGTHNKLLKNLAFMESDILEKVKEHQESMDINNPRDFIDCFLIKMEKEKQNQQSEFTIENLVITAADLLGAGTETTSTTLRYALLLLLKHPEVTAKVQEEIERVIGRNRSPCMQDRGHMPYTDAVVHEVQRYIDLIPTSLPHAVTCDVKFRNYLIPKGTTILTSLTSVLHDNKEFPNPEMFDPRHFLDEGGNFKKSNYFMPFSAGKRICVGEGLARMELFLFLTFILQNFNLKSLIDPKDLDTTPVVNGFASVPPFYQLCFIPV
Chain of CYP2C9 (P11712 whole entry): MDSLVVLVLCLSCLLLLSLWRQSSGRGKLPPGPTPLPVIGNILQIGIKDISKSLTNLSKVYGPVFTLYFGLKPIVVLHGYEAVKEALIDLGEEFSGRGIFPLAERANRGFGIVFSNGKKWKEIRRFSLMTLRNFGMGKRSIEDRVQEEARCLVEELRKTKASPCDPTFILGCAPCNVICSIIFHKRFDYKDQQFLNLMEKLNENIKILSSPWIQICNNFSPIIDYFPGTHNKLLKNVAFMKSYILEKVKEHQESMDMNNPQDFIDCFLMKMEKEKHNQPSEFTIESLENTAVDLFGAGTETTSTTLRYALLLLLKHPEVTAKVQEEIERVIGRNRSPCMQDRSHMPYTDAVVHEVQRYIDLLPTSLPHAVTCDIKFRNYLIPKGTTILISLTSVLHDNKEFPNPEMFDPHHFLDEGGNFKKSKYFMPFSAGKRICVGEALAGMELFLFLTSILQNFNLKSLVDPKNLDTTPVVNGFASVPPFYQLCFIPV
Chain of rCYP2C9 (P11712 whole entry): as above
Chain of CYP2C19 (P33261 whole entry): as the sequence (P33261 whole entry) above

CC(C)(O)c1ccccc1CC[C@@H](SCC1(CC(=O)O)CC1)c1cccc(/C=C/c2ccc3ccc(Cl)cc3n2)c1 [Montelukast, montelukast, reference compound]
% Metabolized at 30 min Incubation with Human Liver Fractions/Enzymes Cytosol [1]: 10.13% | Predicted Microsomal Clint, CYP3A4 ([2]; human, pH 7.4): 19.054 µL/min/mg Protein | % Metabolized at 30 min Incubation with Human Liver Fractions/Enzymes rCYP3A4 ([2]; human, recombinant enzyme, 0.5 h, pH 7.4): 40.25% | % Contribution of CYP Enzymes (fmCYP) in Metabolism, CYP3A4 [2, 17]: 47.07% | rCYP Clint, CYP3A4 [2, 17]: 0.172 µL/min/pmol | inhibition at 2 µM [3]: 0.79% | inhibition at 10 µM [3]: 11.2% | inhibition at 2 µM [4]: 20% | inhibition at 10 µM [4]: 48% | % Metabolized at 30 min Incubation with Human Liver Fractions/Enzymes HLM [5]: 25.71% | % Inhibition of Control Activity CYP1A2 ([6]; 10 µM): 24.96% | inhibition at 2 µM [7, 18]: 93.7% | inhibition at 10 µM [7, 18]: 97.3% | IC50 [8]: 1340 nM | % Inhibition of Control Activity CYP2C19 ([9]; 10 µM): 22.70% | % Metabolized at 30 min Incubation with Human Liver Fractions/Enzymes rCYP1A2 [10]: 9.37% | % Contribution of CYP Enzymes (fmCYP) in Metabolism, CYP1A2 [10, 19]: 4.21% | Predicted Microsomal Clint, CYP1A2 [10, 19]: 1.705 µL/min/mg Protein | rCYP Clint, CYP1A2 [10, 19]: 0.033 µL/min/pmol | % Metabolized at 30 min Incubation with Human Liver Fractions/Enzymes rCYP2C8 [11]: 52.29% | % Contribution of CYP Enzymes (fmCYP) in Metabolism, CYP2C8 [11, 20]: 39.00% | Predicted Microsomal Clint, CYP2C8 [11, 20]: 15.789 µL/min/mg Protein | rCYP Clint, CYP2C8 [11, 20]: 0.247 µL/min/pmol | % Metabolized at 30 min Incubation with Human Liver Fractions/Enzymes rCYP2C9 [12]: 10.85% | % Contribution of CYP Enzymes (fmCYP) in Metabolism, CYP2C9 [12, 21]: 9.08% | Predicted Microsomal Clint, CYP2C9 [12, 21]: 3.675 µL/min/mg Protein | rCYP Clint, CYP2C9 [12, 21]: 0.038 µL/min/pmol | % Metabolized at 30 min Incubation with Human Liver Fractions/Enzymes rCYP2D6 [13]: 7.46% | % Contribution of CYP Enzymes (fmCYP) in Metabolism, CYP2D6 [13, 22]: 0.64% | Predicted Microsomal Clint, CYP2D6 [13, 22]: 0.258 µL/min/mg Protein | rCYP Clint, CYP2D6 [13, 22]: 0.026 µL/min/pmol | % Metabolized at 30 min Incubation with Human Liver Fractions/Enzymes rCYP2C19 [14]: 0.00%

O=c1cc(-c2ccccc2)oc2c1ccc1ccccc12 [α-Nepthoflavone, α-naphthoflavone, reference compound]
inhibition at 20 nM ([6]; human, human liver microsomes, pH 7.4, probe phenacetin, Percent inhibition, positive control inhibitor, CYP1A2, concentration tested 20 nM): 62.4%

triclabendazole sulfone
% Metabolized at 30 min Incubation with Human Liver Fractions/Enzymes Cytosol [1]: 0.00% | % Inhibition of Control Activity CYP3A4 (substrate, testosterone) ([15]; 2 µM): 4.09% | % Inhibition of Control Activity CYP3A4 (substrate, testosterone) ([15]; 10 µM): 8.63% | Predicted Microsomal Clint, CYP3A4 [2]: 3.591 µL/min/mg Protein | % Metabolized at 30 min Incubation with Human Liver Fractions/Enzymes rCYP3A4 ([2]; 1 µM test compound, 100 pmol/mL, 30 min): 9.25% | rCYP Clint, CYP3A4 ([2]; human, recombinant enzyme): 0.032 µL/min/pmol | % Contribution of CYP Enzymes (fmCYP) in Metabolism, CYP3A4 ([2]; recombinant enzyme): 2.67% | Cmax ([16]; human patients at therapeutic doses of triclabendazole): 2290 nM | half-life ([16]; humans): 11 to 12 h | % Metabolized at 30 min Incubation with Human Liver Fractions/Enzymes HLM [5]: 52.20% | % Inhibition of Control Activity CYP1A2 [6]: 8.60% | % Inhibition of Control Activity CYP2C8 ([7]; inhibitor 2 µM, HLM): 65.36% | % Inhibition of Control Activity CYP2C8 ([7]; inhibitor 10 µM, HLM): 92.88% | IC50 ([7]; read-out: IC50 CYP 2C8, HLM): 1050 nM | % Inhibition of Control Activity CYP2C9 ([8]; inhibitor 2 µM, HLM): 78.78% | % Inhibition of Control Activity CYP2C9 ([8]; inhibitor 10 µM, HLM): 96.15% | IC50 ([8]; read-out: IC50 CYP 2C9, HLM): 690 nM | % Inhibition of Control Activity CYP2C19 [9]: 5.05% | Predicted Microsomal Clint, CYP1A2 [10]: 0.069 µL/min/mg Protein | % Metabolized at 30 min Incubation with Human Liver Fractions/Enzymes rCYP1A2 [10]: 0.40% | rCYP Clint, CYP1A2 ([10]; human, recombinant enzyme): 0.001 µL/min/pmol | % Contribution of CYP Enzymes (fmCYP) in Metabolism, CYP1A2 ([10]; recombinant enzyme): 0.05% | % Metabolized at 30 min Incubation with Human Liver Fractions/Enzymes rCYP2C8 [11]: 0.00% | Predicted Microsomal Clint, CYP2C9 [12]: 130.447 µL/min/mg Protein | % Metabolized at 30 min Incubation with Human Liver Fractions/Enzymes rCYP2C9 [12]: 98.31% | rCYP Clint, CYP2C9 ([12]; human, recombinant enzyme): 1.359 µL/min/pmol | % Contribution of CYP Enzymes (fmCYP) in Metabolism, CYP2C9 ([12]; recombinant enzyme): 97.11% | % Metabolized at 30 min Incubation with Human Liver Fractions/Enzymes rCYP2D6 [13]: 0.00% | Predicted Microsomal Clint, CYP2C19 [14]: 0.228 µL/min/mg Protein | % Metabolized at 30 min Incubation with Human Liver Fractions/Enzymes rCYP2C19 [14]: 3.53% | rCYP Clint, CYP2C19 ([14]; human, recombinant enzyme): 0.012 µL/min/pmol | % Contribution of CYP Enzymes (fmCYP) in Metabolism, CYP2C19 ([14]; recombinant enzyme): 0.17%
